Assay results from patent publication US12351819B2, “Method for removing undifferentiated pluripotent stem cells” (priority 2017, dated 2025).

Key:
[1] = tested on: hESCs teratoma formation; test: In vivo tumorigenicity assay (teratoma formation of treated hESCs); conditions: hESCs treated 24 hours before subcutaneous injection into NSG mice; 8 weeks; vs DMSO
Experimental: Approximately 10^6 treated cells were mixed with 10^5 MEFs to promote teratoma formation in 50 μl PBS^32. The cells mixture and 1× Matrigel Matrix was mixed well and the cells were subcutaneously injected into NOD scid gamma mice (NSG mice) for 8 weeks. After 8 weeks, animals were sacrificed and teratoma was removed, fixed in 10% formalin, embedded in paraffin and stained with hematoxylin and eosin. H&E stain protocol was modified from previous study^33. For immunohistochemistry, teratoma sections were blocked using 5% milk for 1 hour, and stained with primary antibody at 4° C. overnight, follow by secondary antibody (Dako, Santa Clara, CA, USA) for 1 hour at RT and DAB enhancer (Dako). Primary antibody: anti-human alpha-1-fetoprotein (A0008, Dako) for endoderm lineage; anti-human smooth muscle actin, clone 1A4 (M0851, Dako) for mesoderm lineage; anti-Tuj1 (MAB1637, EMD Millipore, Darmstadt, Germany) for ectoderm.

[2] = tested on: cleaved PARP, caspase-3, caspase-7 in hBMMSCs; test: Western blot of apoptotic markers, hBMMSCs; format: cell-based, human; conditions: 2.5 μM, 12 hours
Experimental: (§1) RIPA buffer was used to harvest cell lysates (RIPA buffer: NaCl 150 mM, Tris pH 8.0 50 mM, EDTApH 8.0 5 mM, NP-40 1.0%, SDS 0.5%, sodium deoxycholate 0.1%). Western blot analyses were performed as previously described with different types of primary antibodies^29. The primary antibody includes anti-β-actin (A5441; Sigma), anti-Oct4 (sc-9081; Santa Cruz Biotechnology, Santa Cruz, CA, USA), anti-Nanog (3580; Cell Signaling Technology, Danvers, MA, USA), apoptosis antibody kit (9915; Cell Signaling Technology), ATP1A1 (3010; Cell Signaling Technology), and ATP1A2 (16836-1-AP; Proteintech™) were used. After reaction at 4° C. overnight, the blots were incubated with goat anti-mouse- or goat anti-rabbit antibody conjugated with horseradish peroxidase (Jackson ImmunoResearch Inc). The chemiluminescent substrate (WBKLS0500; Millipore, Darmstadt, Germany) was used to detect the blots. Fujifilm LAS-4000 (FUJIFILM, Tokyo, Japan) was used to take the images.

[3] = tested on: cleaved PARP, caspase-3, caspase-7 in hESCs; test: Western blot of apoptotic markers, hESCs; format: cell-based, human; conditions: 2.5 μM, 12 hours
Experimental: as §1

[4] = tested on: Nanog in hESCs; test: Western blot of pluripotent stem cell marker Nanog, hESCs; format: cell-based, human; conditions: 2.5 μM, 12 hours
Experimental: as §1

[5] = tested on: cleaved PARP, caspase3, caspase7 in hESC-MSCs; test: Western blot of apoptotic markers, hESC-MSCs; format: cell-based, human; conditions: 2.5 μM, 12 hours
Experimental: as §1

Structure (SMILES) | tumor (teratoma) weight [1] | cleaved form of apoptosis markers in hBMMSCs [2] | cleaved form of PARP, caspase-3, caspase-7 in hESCs [3] | protein levels of Nanog in hESCs [4] | cleaved form of apoptosis markers in hESC-MSCs [5]
CC(=O)O[C@H]1C[C@H](O[C@H]2[C@@H](O)C[C@H](O[C@H]3[C@@H](O)C[C@H](O[C@H]4CC[C@@]5(C)[C@H](CC[C@@H]6[C@@H]5C[C@@H](O)[C@]5(C)[C@@H](C7=CC(=O)OC7)CC[C@]65O)C4)O[C@@H]3C)O[C@@H]2C)O[C@H](C)[C@H]1O[C@@H]1O[C@H](CO)[C@@H](O)[C@H](O)[C@H]1O [Lanatoside C, lanatoside C] | significantly decreased | no cleaved form of the apoptosis markers was detected | increases in the cleaved form | downregulated | no cleaved form of the apoptosis markers was detected
C[C@H]1O[C@@H](O[C@H]2[C@@H](O)C[C@H](O[C@H]3[C@@H](O)C[C@H](O[C@H]4CC[C@@]5(C)[C@H](CC[C@@H]6[C@@H]5C[C@@H](O)[C@]5(C)[C@@H](C7=CC(=O)OC7)CC[C@]65O)C4)O[C@@H]3C)O[C@@H]2C)C[C@H](O)[C@@H]1O [Digoxin, digoxin] | significantly decreased | no cleaved form of the apoptosis markers was detected | increases in the cleaved form | downregulated | no cleaved form of the apoptosis markers was detected
